IC50 data for 32 compounds are collected here from US12059420B2 (BRISTOL-MYERS SQUIBB COMPANY, priority 2018, dated 2024).

Each structure is given as a SMILES string.

The assay addresses T1, human IDO1 (Homo sapiens, UniProt P14902).
T1 construct: expressed in transfected cells
The experiment in a line: IDO inhibition assay in HEK293 cells stably expressing human IDO1 (kynurenine production, Ehrlich reagent, absorbance 490 nm). It counts as cell-based. The following applies: 20 hours incubation with compound, 500 nM reference standard = 100% inhibition, read-out: IDO1 HEK Human IC50. In a few lines: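 Kynurenine output of stably IDO1-transfected HEK293 cells was measured by absorbance at 490 nm after mixing supernatant with 0.2% Ehrlich reagent, following TCA stop (0.2% final, 50° C., 30 min). Cells were incubated 20 hours with compound. Inhibition was scaled between DMSO and 500 nM reference standard.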

As a reminder, the IC50 is the concentration that gives 50% inhibition.

T1 sequence (P14902 whole entry): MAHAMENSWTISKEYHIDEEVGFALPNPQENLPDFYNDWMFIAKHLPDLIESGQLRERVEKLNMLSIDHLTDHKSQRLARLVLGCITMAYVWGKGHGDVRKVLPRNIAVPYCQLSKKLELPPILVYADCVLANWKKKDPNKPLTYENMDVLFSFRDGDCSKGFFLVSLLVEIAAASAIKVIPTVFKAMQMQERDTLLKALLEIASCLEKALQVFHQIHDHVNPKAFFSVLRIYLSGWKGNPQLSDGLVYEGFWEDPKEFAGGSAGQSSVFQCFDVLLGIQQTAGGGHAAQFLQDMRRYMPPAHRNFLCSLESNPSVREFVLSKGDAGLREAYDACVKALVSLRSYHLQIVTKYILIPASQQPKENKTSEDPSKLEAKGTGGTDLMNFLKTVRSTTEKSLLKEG

Regarding `CC(C)CN(Cc1ccccc1)c1cc(Nc2ccc(Cl)cc2Cl)cc(-c2ccccc2-c2nnn[nH]2)n1` [Example 174, 6-(2-(1H-tetrazol-5-yl)phenyl)-N2-benzyl-N4-(2,4-dichlorophenyl)-N2-isobutylpyridine-2,4-diamine], the IC50 amounted to 16.5 nM.

As to `Cc1cc(F)ccc1Nc1cc(-c2ccccc2-c2nnn[nH]2)nc(N(Cc2ccccc2)CC(C)C)c1` [Example 175, 6-(2-(1H-tetrazol-5-yl)phenyl)-N2-benzyl-N4-(4-fluoro-2-methylphenyl)-N2-isobutylpyridine-2,4-diamine], the IC50 turned out to be 54.9 nM.

As to `Cc1cc(Nc2cc(-c3ccccc3-c3nnn[nH]3)nc(N(Cc3ccccc3)CC(C)C)c2)ccc1C#N` [Example 176, 4-((2-(2-(1H-tetrazol-5-yl)phenyl)-6-(benzyl(isobutyl)amino)pyridin-4-yl)amino)-2-methylbenzonitrile], the IC50 is 10.5 nM.

With `CC(C)CN(Cc1ccccc1)c1cc(Nc2ccccc2Cl)cc(-c2ccccc2-c2nnn[nH]2)n1` [Example 177, 6-(2-(1H-tetrazol-5-yl)phenyl)-N2-benzyl-N4-(2-chlorophenyl)-N2-isobutylpyridine-2,4-diamine], the IC50 amounted to 17.5 nM.

For `CC(C)CN(Cc1ccccc1)c1cc(Nc2ncccc2F)cc(-c2ccccc2-c2nnn[nH]2)n1` [Example 178, 6-(2-(1H-tetrazol-5-yl)phenyl)-N2-benzyl-N4-(3-fluoropyridin-2-yl)-N2-isobutylpyridine-2,4-diamine], the IC50 was determined as 58.4 nM.

In the case of `CC(C)CN(Cc1ccccc1)c1cc(Nc2ccccc2F)cc(-c2ccccc2-c2nnn[nH]2)n1` [Example 179, 6-(2-(1H-tetrazol-5-yl)phenyl)-N2-benzyl-N4-(2-fluorophenyl)-N2-isobutylpyridine-2,4-diamine], the IC50 came out at 10.9 nM.

As to `CC(C)CN(Cc1ccccc1)c1cc(Nc2ccc(Cl)cc2F)cc(-c2ccccc2-c2nnn[nH]2)n1` [Example 180, 6-(2-(1H-tetrazol-5-yl)phenyl)-N2-benzyl-N4-(4-chloro-2-fluorophenyl)-N2-isobutylpyridine-2,4-diamine], the IC50 worked out at 2.2 nM.

Consider `CC(C)CN(Cc1ccccc1)c1cc(Nc2ccc(F)c(F)c2)cc(-c2ccccc2-c2nnn[nH]2)n1` [Example 181, 6-(2-(1H-tetrazol-5-yl)phenyl)-N2-benzyl-N4-(3,4-difluorophenyl)-N2-isobutylpyridine-2,4-diamine], for which the IC50 is 4.3 nM.

Regarding `CC(C)CN(Cc1ccccc1)c1cc(Nc2ccc3c(c2)OC(F)(F)O3)cc(-c2ccccc2-c2nnn[nH]2)n1` [Example 182, 6-(2-(1H-tetrazol-5-yl)phenyl)-N2-benzyl-N4-(2,2-difluorobenzo[d][1,3]dioxol-5-yl)-N2-isobutylpyridine-2,4-diamine], the IC50 was 9.5 nM.

With `Cc1cc(F)cnc1Nc1cc(-c2ccccc2-c2nnn[nH]2)nc(N(Cc2ccccc2)CC(C)C)c1` [Example 183, 6-(2-(1H-tetrazol-5-yl)phenyl)-N2-benzyl-N4-(5-fluoro-3-methylpyridin-2-yl)-N2-isobutylpyridine-2,4-diamine], the IC50 came to 129 nM.

On to `CC(C)CN(Cc1ccccc1)c1cc(Nc2cc(F)ccc2C(=O)O)cc(-c2ccccc2-c2nnn[nH]2)n1` [Example 185, 2-((2-(2-(1H-tetrazol-5-yl)phenyl)-6-(benzyl(isobutyl)amino)pyridin-4-yl)amino)-4-fluorobenzoic acid], for which the IC50 stood at 2740 nM.

As for `COc1ccc(Nc2cc(-c3ccccc3-c3nnn[nH]3)nc(N(Cc3ccccc3)CC(C)C)c2)c(F)c1` [Example 186, 6-(2-(1H-tetrazol-5-yl)phenyl)-N2-benzyl-N4-(2-fluoro-4-methoxyphenyl)-N2-isobutylpyridine-2,4-diamine], the IC50 amounted to 3.5 nM.

Take `Cc1ccc(Nc2cc(-c3ccccc3-c3nnn[nH]3)nc(N(Cc3ccccc3)CC(C)C)c2)c(C#N)c1` [Example 187, 2-((2-(2-(1H-tetrazol-5-yl)phenyl)-6-(benzyl(isobutyl)amino)pyridin-4-yl)amino)-5-methylbenzonitrile]: the IC50 is 101 nM.

`COc1cc(Nc2cc(-c3ccccc3-c3nnn[nH]3)nc(N(Cc3ccccc3)CC(C)C)c2)ccc1Cl` [Example 188, 6-(2-(1H-tetrazol-5-yl)phenyl)-N2-benzyl-N4-(4-chloro-3-methoxyphenyl)-N2-isobutylpyridine-2,4-diamine]: the IC50 stood at 2 nM.

For the compound `CC(C)CN(Cc1ccccc1)c1cc(Nc2cccc(OC(F)(F)C(F)F)c2)cc(-c2ccccc2-c2nnn[nH]2)n1` [Example 189, 6-(2-(1H-tetrazol-5-yl)phenyl)-N2-benzyl-N2-isobutyl-N4-(3-(1,1,2,2-tetrafluoroethoxy)phenyl)pyridine-2,4-diamine], the IC50 amounted to 9.3 nM.

Take `COc1cc(Nc2cc(-c3ccccc3-c3nnn[nH]3)nc(N(Cc3ccccc3)CC(C)C)c2)ccc1F` [Example 190, 6-(2-(1H-tetrazol-5-yl)phenyl)-N2-benzyl-N4-(4-fluoro-3-methoxyphenyl)-N2-isobutylpyridine-2,4-diamine]: the IC50 turned out to be 8.5 nM.

`CC(C)CN(Cc1ccccc1)c1cc(Nc2cccc(C(F)F)c2)cc(-c2ccccc2-c2nnn[nH]2)n1` [Example 191, 6-(2-(1H-tetrazol-5-yl)phenyl)-N2-benzyl-N4-(3-(difluoromethyl)phenyl)-N2-isobutylpyridine-2,4-diamine]: the IC50 worked out at 26.4 nM.

Consider `CC(C)CN(Cc1ccccc1)c1cc(Nc2cccc(C#N)c2)cc(-c2ccccc2-c2nnn[nH]2)n1` [Example 192, 3-((2-(2-(1H-tetrazol-5-yl)phenyl)-6-(benzyl(isobutyl)amino)pyridin-4-yl)amino)benzonitrile], for which the IC50 was found to be 19.8 nM.

Regarding `CC(C)CN(Cc1ccccc1)c1cc(Nc2cccc(OC(F)(F)F)c2)cc(-c2ccccc2-c2nnn[nH]2)n1` [Example 193, 6-(2-(1H-tetrazol-5-yl)phenyl)-N2-benzyl-N2-isobutyl-N4-(3-(trifluoromethoxy)phenyl)pyridine-2,4-diamine], the IC50 turned out to be 14.1 nM.

For the compound `CC(C)CN(Cc1ccccc1)c1cc(Nc2ccccc2C#N)cc(-c2ccccc2-c2nnn[nH]2)n1` [Example 194, 2-((2-(2-(1H-tetrazol-5-yl)phenyl)-6-(benzyl(isobutyl)amino)pyridin-4-yl)amino)benzonitrile], the IC50 came to 230 nM.

Consider `CC(C)CN(Cc1ccccc1)c1cc(Nc2cccc(C(F)F)n2)cc(-c2ccccc2-c2nnn[nH]2)n1` [Example 195, 6-(2-(1H-tetrazol-5-yl)phenyl)-N2-benzyl-N4-(6-(difluoromethyl)pyridin-2-yl)-N2-isobutylpyridine-2,4-diamine], for which the IC50 stood at 19.8 nM.

Take `COc1cccc(Nc2cc(-c3ccccc3-c3nnn[nH]3)nc(N(Cc3ccccc3)CC(C)C)c2)c1` [Example 196, 6-(2-(1H-tetrazol-5-yl)phenyl)-N2-benzyl-N2-isobutyl-N4-(3-methoxyphenyl)pyridine-2,4-diamine]: the IC50 worked out at 7 nM.

With `COc1cc(F)cc(Nc2cc(-c3ccccc3-c3nnn[nH]3)nc(N(Cc3ccccc3)CC(C)C)c2)c1` [Example 197, 6-(2-(1H-tetrazol-5-yl)phenyl)-N2-benzyl-N4-(3-fluoro-5-methoxyphenyl)-N2-isobutylpyridine-2,4-diamine], the IC50 amounted to 5.8 nM.

As to `COc1ccc(Nc2cc(-c3ccccc3-c3nnn[nH]3)nc(N(Cc3ccccc3)CC(C)C)c2)cc1C(N)=O` [Example 198, 5-((2-(2-(1H-tetrazol-5-yl)phenyl)-6-(benzyl(isobutyl)amino)pyridin-4-yl)amino)-2-methoxybenzamide], the IC50 is 2960 nM.

`CCCN(Cc1ccccc1)c1cc(NC(=O)Cc2cncc(Br)c2)cc(-c2ccccc2-c2nn[nH]n2)n1` [Example 199, N-(2-(2-(2H-tetrazol-5-yl)phenyl)-6-(benzyl(propyl)amino)-yl)-2-(5-bromopyridin-3-yl)acetamide]: the IC50 came out at 239 nM.

For `CCCN(Cc1ccccc1)c1cc(NC(=O)Cc2cccc3ccccc23)cc(-c2ccccc2-c2nn[nH]n2)n1` [Example 200, N-(2-(2-(2H-tetrazol-5-yl)phenyl)-6-(benzyl(propyl)amino)pyridin-4-yl)-2-(naphthalen-1-yl)acetamide], the IC50 was found to be 82.4 nM.

As to `CCCN(Cc1ccccc1)c1cc(NC(=O)Cc2ccc3ccccc3c2)cc(-c2ccccc2-c2nn[nH]n2)n1` [Example 201, N-(2-(2-(2H-tetrazol-5-yl)phenyl)-6-(benzyl(propyl)amino)pyridin-4-yl)-2-(naphthalen-2-yl)acetamide], the IC50 is 34.2 nM.

For the compound `CCCN(Cc1ccccc1)c1cc(NC(=O)Cc2ccccc2F)cc(-c2ccccc2-c2nn[nH]n2)n1` [Example 202, N-(2-(2-(2H-tetrazol-5-yl)phenyl)-6-(benzyl(propyl)amino)pyridin-4-yl)-2-(2-fluorophenyl)acetamide], the IC50 is 202 nM.

In the case of `CCCN(Cc1ccccc1)c1cc(NC(=O)Cc2ccccc2OC)cc(-c2ccccc2-c2nn[nH]n2)n1` [Example 203, N-(2-(2-(2H-tetrazol-5-yl)phenyl)-6-(benzyl(propyl)amino)pyridin-4-yl)-2-(2-methoxyphenyl)acetamide], the IC50 came to 305 nM.

Turning to `CCCN(Cc1ccccc1)c1cc(NC(=O)Cc2cc(OC)ccc2OC)cc(-c2ccccc2-c2nn[nH]n2)n1` [Example 204, N-(2-(2-(2H-tetrazol-5-yl)phenyl)-6-(benzyl(propyl)amino)pyridin-4-yl)-2-(2,5-dimethoxyphenyl)acetamide], the IC50 is 159 nM.

On to `CCCN(Cc1ccccc1)c1cc(NC(=O)Cc2ccccc2C(F)(F)F)cc(-c2ccccc2-c2nn[nH]n2)n1` [Example 205, N-(2-(2-(2H-tetrazol-5-yl)phenyl)-6-(benzyl(propyl)amino)pyridin-4-yl)-2-(2-(trifluoromethyl)phenyl)acetamide], for which the IC50 was determined as 80.2 nM.

As to `CCCN(Cc1ccccc1)c1cc(NC(=O)Cc2cccs2)cc(-c2ccccc2-c2nn[nH]n2)n1` [Example 206, N-(2-(2-(2H-tetrazol-5-yl)phenyl)-6-(benzyl(propyl)amino)pyridin-4-yl)-2-(thiophen-2-yl)acetamide], the IC50 amounted to 323 nM.
